Measured values: ChEMBL document CHEMBL1201862, “PubChem BioAssay data set” (2004)
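A five-concentration, 48-hour dose response in 96-well plates underlies each endpoint, interpolated linearly between surrounding concentrations. GI50: concentration for 50% inhibition of growth.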 Active and inactive are the calls of the source. Cut-off read from the data, not from the text of the source: active = GI50 up to about 1.1 µM and inactive = higher.

How the values were obtained:
Test in all cases: NCI anticancer screen, dose series, 48 h
786-0 = system: 786-0
A549 = system: A549
ACHN = system: ACHN
CAKI-1 = system: CAKI-1
CCRF-CEM = system: CCRF-CEM
COLO 205 = system: COLO 205
DMS-273 = system: DMS-273
EKVX = system: EKVX
HCC 2998 = system: HCC 2998
HCT-116 = system: HCT-116
HCT-15 = system: HCT-15
HL-60 = system: HL-60
HOP-18 = system: HOP-18
HOP-62 = system: HOP-62
HT-29 = system: HT-29
K562 = system: K562
KM12 = system: KM12
LOX IMVI = system: LOX IMVI
M14 = system: M14
M19-MEL = system: M19-MEL
MOLT-4 = system: MOLT-4
Malme-3M = system: Malme-3M
NCI-H226 = system: NCI-H226
NCI-H460 = system: NCI-H460
NCI-H522 = system: NCI-H522
OVCAR-3 = system: OVCAR-3
OVCAR-4 = system: OVCAR-4
OVCAR-5 = system: OVCAR-5
OVCAR-8 = system: OVCAR-8
RPMI-8226 = system: RPMI-8226
SF-268 = system: SF-268
SF-295 = system: SF-295
SF-539 = system: SF-539
SK-MEL-28 = system: SK-MEL-28
SK-MEL-2 = system: SK-MEL-2
SK-MEL-5 = system: SK-MEL-5
SN12C = system: SN12C
SNB-19 = system: SNB-19
SNB-75 = system: SNB-75
SR = system: SR
SW-620 = system: SW-620
TK-10 = system: TK-10
UACC-257 = system: UACC-257
UO-31 = system: UO-31
XF498 = system: XF498
A498 = system: A498
HOP-92 = system: HOP-92
IGROV-1 = system: IGROV-1
LXFL 529 = system: LXFL 529
NCI-H23 = system: NCI-H23
RXF 393 = system: RXF 393
SK-OV-3 = system: SK-OV-3
SNB-78 = system: SNB-78
U-251 = system: U-251
UACC-62 = system: UACC-62

Question: `c1cnc2c(c1)-n1cccc1C1(CCSCC1)NN2` was tested. Which GI50 (786-0) did it give?
Answer: The GI50 was > 100 µM (inactive).

Question: And the GI50 (A549)?
Answer: The GI50 was > 100 µM (inactive).

Question: What about the GI50 (ACHN) of the same molecule?
Answer: Its GI50 is > 100 µM (inactive).

Question: And the GI50 (CAKI-1)?
Answer: The GI50 was 88.5 µM (inactive).

Question: What about the GI50 (CCRF-CEM) of the same molecule?
Answer: Its GI50 is > 100 µM (inactive).

Question: What about the GI50 (COLO 205) of the same molecule?
Answer: The GI50 was > 100 µM (inactive).

Question: And the GI50 (DMS-273)?
Answer: Its GI50 is > 100 µM (inactive).

Question: And the GI50 (EKVX)?
Answer: The GI50 was > 100 µM (inactive).

Question: And the GI50 (HCC 2998)?
Answer: The GI50 was > 100 µM (inactive).

Question: And the GI50 (HCT-116)?
Answer: Its GI50 is > 100 µM (inactive).

Question: And the GI50 (HCT-15)?
Answer: Its GI50 is 80.2 µM.

Question: What about the GI50 (HL-60) of the same molecule?
Answer: The GI50 was 39.6 µM (inactive).

Question: What about the GI50 (HOP-18) of the same molecule?
Answer: The GI50 was 26 µM (inactive).

Question: And the GI50 (HOP-62)?
Answer: Its GI50 is > 100 µM (inactive).

Question: And the GI50 (HT-29)?
Answer: Its GI50 is > 100 µM (inactive).

Question: And the GI50 (K562)?
Answer: Its GI50 is 89.5 µM (inactive).

Question: And the GI50 (KM12)?
Answer: The GI50 was > 100 µM (inactive).

Question: What about the GI50 (LOX IMVI) of the same molecule?
Answer: Its GI50 is 68.7 µM (inactive).

Question: What about the GI50 (M14) of the same molecule?
Answer: Its GI50 is > 100 µM (inactive).

Question: And the GI50 (M19-MEL)?
Answer: The GI50 was 48.5 µM (inactive).

Question: What about the GI50 (MOLT-4) of the same molecule?
Answer: Its GI50 is 50.2 µM (inactive).

Question: What about the GI50 (Malme-3M) of the same molecule?
Answer: Its GI50 is > 100 µM (inactive).

Question: And the GI50 (NCI-H226)?
Answer: Its GI50 is 59 µM (inactive).

Question: And the GI50 (NCI-H460)?
Answer: Its GI50 is 83.4 µM (inactive).

Question: And the GI50 (NCI-H522)?
Answer: The GI50 was 95.3 µM (inactive).

Question: What about the GI50 (OVCAR-3) of the same molecule?
Answer: The GI50 was > 100 µM (inactive).

Question: What about the GI50 (OVCAR-4) of the same molecule?
Answer: Its GI50 is > 100 µM (inactive).

Question: What about the GI50 (OVCAR-5) of the same molecule?
Answer: Its GI50 is > 100 µM (inactive).

Question: And the GI50 (OVCAR-8)?
Answer: Its GI50 is > 100 µM (inactive).

Question: And the GI50 (RPMI-8226)?
Answer: Its GI50 is > 100 µM (inactive).

Question: And the GI50 (SF-268)?
Answer: Its GI50 is > 100 µM (inactive).

Question: What about the GI50 (SF-295) of the same molecule?
Answer: Its GI50 is > 100 µM (inactive).

Question: And the GI50 (SF-539)?
Answer: Its GI50 is > 100 µM (inactive).

Question: And the GI50 (SK-MEL-28)?
Answer: Its GI50 is > 100 µM (inactive).

Question: What about the GI50 (SK-MEL-2) of the same molecule?
Answer: Its GI50 is > 100 µM (inactive).

Question: What about the GI50 (SK-MEL-5) of the same molecule?
Answer: The GI50 was > 100 µM (inactive).

Question: And the GI50 (SN12C)?
Answer: Its GI50 is > 100 µM (inactive).

Question: And the GI50 (SNB-19)?
Answer: The GI50 was > 100 µM (inactive).

Question: And the GI50 (SNB-75)?
Answer: Its GI50 is 53.5 µM (inactive).

Question: And the GI50 (SR)?
Answer: Its GI50 is 61.8 µM (inactive).

Question: And the GI50 (SW-620)?
Answer: The GI50 was > 100 µM (inactive).

Question: What about the GI50 (TK-10) of the same molecule?
Answer: The GI50 was 42.6 µM (inactive).

Question: And the GI50 (UACC-257)?
Answer: The GI50 was 90.2 µM (inactive).

Question: What about the GI50 (UO-31) of the same molecule?
Answer: The GI50 was 32.4 µM (inactive).

Question: And the GI50 (XF498)?
Answer: The GI50 was > 100 µM (inactive).

Question: With `O=CC[C@H]1C(=O)C[C@@H]2CCC[C@@H]21` as the molecule, how does the GI50 (786-0) read?
Answer: Its GI50 is > 100 µM (inactive).

Question: And the GI50 (A498)?
Answer: Its GI50 is > 100 µM (inactive).

Question: What about the GI50 (A549) of the same molecule?
Answer: Its GI50 is > 100 µM (inactive).

Question: And the GI50 (ACHN)?
Answer: Its GI50 is > 100 µM (inactive).

Question: And the GI50 (CAKI-1)?
Answer: The GI50 was > 100 µM (inactive).

Question: What about the GI50 (CCRF-CEM) of the same molecule?
Answer: The GI50 was 34.1 µM (inactive).

Question: And the GI50 (COLO 205)?
Answer: Its GI50 is > 100 µM (inactive).

Question: And the GI50 (EKVX)?
Answer: Its GI50 is > 100 µM (inactive).

Question: And the GI50 (HCC 2998)?
Answer: Its GI50 is > 100 µM (inactive).

Question: And the GI50 (HCT-116)?
Answer: The GI50 was 37.2 µM (inactive).

Question: What about the GI50 (HCT-15) of the same molecule?
Answer: The GI50 was 45.7 µM.

Question: What about the GI50 (HL-60) of the same molecule?
Answer: Its GI50 is 32.1 µM (inactive).

Question: And the GI50 (HOP-62)?
Answer: Its GI50 is > 100 µM (inactive).

Question: And the GI50 (HOP-92)?
Answer: The GI50 was 57.3 µM (inactive).

Question: And the GI50 (HT-29)?
Answer: The GI50 was 94 µM (inactive).

Question: And the GI50 (IGROV-1)?
Answer: Its GI50 is > 100 µM (inactive).

Question: What about the GI50 (K562) of the same molecule?
Answer: The GI50 was 34.2 µM (inactive).

Question: And the GI50 (KM12)?
Answer: Its GI50 is 51.8 µM (inactive).

Question: What about the GI50 (LXFL 529) of the same molecule?
Answer: The GI50 was 48 µM (inactive).

Question: And the GI50 (M14)?
Answer: Its GI50 is 68.2 µM (inactive).

Question: And the GI50 (M19-MEL)?
Answer: The GI50 was 56.2 µM (inactive).

Question: What about the GI50 (MOLT-4) of the same molecule?
Answer: The GI50 was 43.4 µM (inactive).

Question: And the GI50 (Malme-3M)?
Answer: The GI50 was > 100 µM (inactive).

Question: What about the GI50 (NCI-H226) of the same molecule?
Answer: The GI50 was 80.4 µM (inactive).

Question: What about the GI50 (NCI-H23) of the same molecule?
Answer: The GI50 was 43.7 µM (inactive).

Question: And the GI50 (NCI-H460)?
Answer: The GI50 was > 100 µM (inactive).

Question: And the GI50 (NCI-H522)?
Answer: The GI50 was > 100 µM (inactive).

Question: And the GI50 (OVCAR-3)?
Answer: The GI50 was 47.6 µM (inactive).

Question: And the GI50 (OVCAR-4)?
Answer: The GI50 was > 100 µM (inactive).

Question: And the GI50 (OVCAR-5)?
Answer: The GI50 was > 100 µM (inactive).

Question: And the GI50 (OVCAR-8)?
Answer: Its GI50 is 43.1 µM (inactive).

Question: And the GI50 (RPMI-8226)?
Answer: Its GI50 is 42.4 µM (inactive).

Question: And the GI50 (RXF 393)?
Answer: Its GI50 is 29.6 µM (inactive).

Question: What about the GI50 (SF-268) of the same molecule?
Answer: The GI50 was 89.1 µM (inactive).

Question: And the GI50 (SF-295)?
Answer: The GI50 was > 100 µM (inactive).

Question: What about the GI50 (SF-539) of the same molecule?
Answer: Its GI50 is 50.1 µM (inactive).

Question: What about the GI50 (SK-MEL-28) of the same molecule?
Answer: The GI50 was > 100 µM (inactive).

Question: And the GI50 (SK-MEL-2)?
Answer: Its GI50 is 59.2 µM (inactive).

Question: And the GI50 (SK-MEL-5)?
Answer: Its GI50 is 33.5 µM (inactive).

Question: And the GI50 (SK-OV-3)?
Answer: The GI50 was > 100 µM (inactive).

Question: What about the GI50 (SN12C) of the same molecule?
Answer: The GI50 was 92.3 µM (inactive).

Question: And the GI50 (SNB-19)?
Answer: Its GI50 is > 100 µM (inactive).

Question: What about the GI50 (SNB-75) of the same molecule?
Answer: The GI50 was 64.4 µM (inactive).

Question: And the GI50 (SNB-78)?
Answer: Its GI50 is > 100 µM (inactive).

Question: What about the GI50 (SW-620) of the same molecule?
Answer: The GI50 was 46.9 µM (inactive).

Question: What about the GI50 (TK-10) of the same molecule?
Answer: The GI50 was > 100 µM (inactive).

Question: And the GI50 (U-251)?
Answer: The GI50 was 98.6 µM (inactive).

Question: What about the GI50 (UACC-257) of the same molecule?
Answer: Its GI50 is > 100 µM (inactive).

Question: And the GI50 (UACC-62)?
Answer: The GI50 was 84.3 µM (inactive).

Question: What about the GI50 (XF498) of the same molecule?
Answer: Its GI50 is > 100 µM (inactive).
